# According to patent US8192962B2, “Processes for detecting toxic substances” (Daikin Industries, Ltd., priority 2001, dated 2012):
# Test system: Unknown protein yeast genes
# Assay: DNA chip mRNA expression in yeast, unknown protein yeast genes (Table 1)
# Assay type: cell-based, Saccharomyces cerevisiae S288C
# How it was run: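 S. cerevisiae S288C grown at 25° C in YPD were exposed in log phase for two hours to one toxic chemical at a growth-inhibiting, non-lethal concentration; untreated cells served as control. Poly(A) mRNA was reverse-transcribed with Cy3/Cy5-dUTP and hybridized to a whole-genome yeast DNA chip at 65° C for over 12 hours; values are fluorescence ratios versus untreated.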
smiles,measurement,setting,value
"C[S+](C)[O-] [(15), dimethylsulfoxide]",The level of expressed mRNA in the presence of chemical substance/The level of expressed mRNA in the absence of chemical substance,yeast gene YLR008C,0.7
same,The level of expressed mRNA in the presence of chemical substance/The level of expressed mRNA in the absence of chemical substance,yeast gene YLR226W,1.3
same,The level of expressed mRNA in the presence of chemical substance/The level of expressed mRNA in the absence of chemical substance,yeast gene YLR297W,0.7
same,The level of expressed mRNA in the presence of chemical substance/The level of expressed mRNA in the absence of chemical substance,"yeast gene YLR311C, incubated two hours with substance",0.5
same,The level of expressed mRNA in the presence of chemical substance/The level of expressed mRNA in the absence of chemical substance,yeast gene YLR346C,1.0
same,The level of expressed mRNA in the presence of chemical substance/The level of expressed mRNA in the absence of chemical substance,yeast gene YLR392C,0.5
same,The level of expressed mRNA in the presence of chemical substance/The level of expressed mRNA in the absence of chemical substance,yeast gene YLR415C,1.0
same,The level of expressed mRNA in the presence of chemical substance/The level of expressed mRNA in the absence of chemical substance,yeast gene YLR427W,0.8
same,The level of expressed mRNA in the presence of chemical substance/The level of expressed mRNA in the absence of chemical substance,yeast gene YLR460C,0.7
same,The level of expressed mRNA in the presence of chemical substance/The level of expressed mRNA in the absence of chemical substance,yeast gene YML013W,2.2
same,The level of expressed mRNA in the presence of chemical substance/The level of expressed mRNA in the absence of chemical substance,yeast gene YML029W,0.8
same,The level of expressed mRNA in the presence of chemical substance/The level of expressed mRNA in the absence of chemical substance,yeast gene YML041C,1.0
same,The level of expressed mRNA in the presence of chemical substance/The level of expressed mRNA in the absence of chemical substance,yeast gene YML079W,0.3
same,The level of expressed mRNA in the presence of chemical substance/The level of expressed mRNA in the absence of chemical substance,"yeast gene YMR041C, incubated two hours with substance",0.5
same,The level of expressed mRNA in the presence of chemical substance/The level of expressed mRNA in the absence of chemical substance,yeast gene YMR068W,2.2
same,The level of expressed mRNA in the presence of chemical substance/The level of expressed mRNA in the absence of chemical substance,yeast gene YMR090W,1.9
same,The level of expressed mRNA in the presence of chemical substance/The level of expressed mRNA in the absence of chemical substance,yeast gene YMR160W,1.5
same,The level of expressed mRNA in the presence of chemical substance/The level of expressed mRNA in the absence of chemical substance,yeast gene YMR315W,2.5
same,The level of expressed mRNA in the presence of chemical substance/The level of expressed mRNA in the absence of chemical substance,yeast gene YNL026W,0.8
same,The level of expressed mRNA in the presence of chemical substance/The level of expressed mRNA in the absence of chemical substance,yeast gene YNL058C,2.2
same,The level of expressed mRNA in the presence of chemical substance/The level of expressed mRNA in the absence of chemical substance,yeast gene YNL063W,0.7
same,The level of expressed mRNA in the presence of chemical substance/The level of expressed mRNA in the absence of chemical substance,yeast gene YNL176C,0.8
same,The level of expressed mRNA in the presence of chemical substance/The level of expressed mRNA in the absence of chemical substance,yeast gene YNL194C,0.5
same,The level of expressed mRNA in the presence of chemical substance/The level of expressed mRNA in the absence of chemical substance,yeast gene YNL200C,0.8
same,The level of expressed mRNA in the presence of chemical substance/The level of expressed mRNA in the absence of chemical substance,yeast gene YNL211C,0.8
same,The level of expressed mRNA in the presence of chemical substance/The level of expressed mRNA in the absence of chemical substance,yeast gene YNL253W,0.5
same,The level of expressed mRNA in the presence of chemical substance/The level of expressed mRNA in the absence of chemical substance,yeast gene YNR051C,1.2
same,The level of expressed mRNA in the presence of chemical substance/The level of expressed mRNA in the absence of chemical substance,yeast gene YOL026C,0.9
same,The level of expressed mRNA in the presence of chemical substance/The level of expressed mRNA in the absence of chemical substance,yeast gene YOL031C,4.4
same,The level of expressed mRNA in the presence of chemical substance/The level of expressed mRNA in the absence of chemical substance,yeast gene YOL101C,0.6
same,The level of expressed mRNA in the presence of chemical substance/The level of expressed mRNA in the absence of chemical substance,yeast gene YOL150C,1.8
same,The level of expressed mRNA in the presence of chemical substance/The level of expressed mRNA in the absence of chemical substance,yeast gene YOR022C,0.8
same,The level of expressed mRNA in the presence of chemical substance/The level of expressed mRNA in the absence of chemical substance,yeast gene YOR049C,1.3
same,The level of expressed mRNA in the presence of chemical substance/The level of expressed mRNA in the absence of chemical substance,yeast gene YOR087W,0.8
same,The level of expressed mRNA in the presence of chemical substance/The level of expressed mRNA in the absence of chemical substance,yeast gene YOR138C,1.0
same,The level of expressed mRNA in the presence of chemical substance/The level of expressed mRNA in the absence of chemical substance,"yeast gene YOR248W, incubated two hours with chemical substance",8.8
same,The level of expressed mRNA in the presence of chemical substance/The level of expressed mRNA in the absence of chemical substance,yeast gene YOR253W,1.1
same,The level of expressed mRNA in the presence of chemical substance/The level of expressed mRNA in the absence of chemical substance,yeast gene YOR267C,1.3
same,The level of expressed mRNA in the presence of chemical substance/The level of expressed mRNA in the absence of chemical substance,yeast gene YOR338W,1.8
same,The level of expressed mRNA in the presence of chemical substance/The level of expressed mRNA in the absence of chemical substance,yeast gene YPL005W,1.2
same,The level of expressed mRNA in the presence of chemical substance/The level of expressed mRNA in the absence of chemical substance,yeast gene YPL150W,1.1
same,The level of expressed mRNA in the presence of chemical substance/The level of expressed mRNA in the absence of chemical substance,yeast gene YPL152W,2.3
same,The level of expressed mRNA in the presence of chemical substance/The level of expressed mRNA in the absence of chemical substance,yeast gene YPL168W,0.8
same,The level of expressed mRNA in the presence of chemical substance/The level of expressed mRNA in the absence of chemical substance,yeast gene YPL180W,0.7
same,The level of expressed mRNA in the presence of chemical substance/The level of expressed mRNA in the absence of chemical substance,yeast gene YPL188W,0.8
same,The level of expressed mRNA in the presence of chemical substance/The level of expressed mRNA in the absence of chemical substance,yeast gene YPL221W,1.0
same,The level of expressed mRNA in the presence of chemical substance/The level of expressed mRNA in the absence of chemical substance,yeast gene YPL280W,4.3
same,The level of expressed mRNA in the presence of chemical substance/The level of expressed mRNA in the absence of chemical substance,yeast gene YPR049C,1.5
same,The level of expressed mRNA in the presence of chemical substance/The level of expressed mRNA in the absence of chemical substance,"yeast gene YPR077C, cells incubated two hours with the chemical substance",2.9
same,The level of expressed mRNA in the presence of chemical substance/The level of expressed mRNA in the absence of chemical substance,yeast gene YPR148C,1.7
same,The level of expressed mRNA in the presence of chemical substance/The level of expressed mRNA in the absence of chemical substance,yeast gene YPR172W,1.5
